Results reported in patent EP3311800B1, “COMPOSITION COMPRISING MICROSTRUCTURES FOR THE CONTROLLED RELEASE OF OZONIZED OIL” (Project & Communications, Ltd., priority 2016, dated 2018).

System: fibroblast L929
Assay: cytotoxicity test (MTT test), UNI EN ISO 10993-5:2009
Format: cell-based
Settings: Mus musculus
Source text: The four compositions indicated above were subjected to a cytotoxicity test (MTT test).
As is known, the cytotoxicity test (MTT test) is a reduction test used for determining the level of metabolic activity in the eukaryote cells. This is one of the most widely used cytotoxicity tests, thanks to its simplicity, accuracy and reproducibility. The chemical base of the test is the reduction of MTT, a tetrazole compound [3-(4,5-dimethylthiazol-2-yl)-2,5-diphenyltetrazolium bromide]. MTT is a yellow substance which, after reduction, forms a purple-colored formazan salt.
The process mainly takes place in the cytoplasm and secondarily in the mitochondria and at the level of the plasmatic membrane. The activity of the reductase that catalyze the reaction is highly dependent on the concentration of the intracellular NADH and NADPH, whose levels are associated with the availability of extracellular glucose. The mitochondrial succinate dehydrogenase and the cytochrome C also take part in the reduction of MTT. Consequently, any substance or treatment that interferes with these enzymes or with the glycolysis would influence the reduction of MTT and would therefore alter the results of the cell count. As a result of these metabolic reduction processes, dark purple crystals of formazan are formed within a few hours. These crystals can be solubilized in various organic solvents, mainly alcohols. An increase or a reduction in the number of cells causes an analogous variation in the quantity of formazan formed, thus giving an indication of the degree of cytotoxicity of the product tested.
The MTT test was carried out on cultures of fibroblast L929 treated with the extract (transfer liquid as such obtained after overnight incubation of the composition under examination in the culture medium) and subsequent dilutions 1:2. The same procedure was also applied for the negative reference (internal standard), whereas the positive control (SDS) was tested at concentrations ranging from 0.00313 to 0.4 mg/ml. Sodium dodecyl sulfate (SDS), a substance with known cytotoxic effects was used as positive control, whereas a non-cytotoxic internal standard was used as negative reference. The analysis was carried out according to the ISO standard for the biological evaluation of medical devices UNI EN ISO 10993-5:2009 (E) .
More specifically, an adequate number of cells was seeded in 96-well plates. Once a semi-confluent monolayer had been reached, the cells were treated with the various concentrations of the sample tested and standards and incubated for 24 hours under standard conditions. Non-treated cells kept in the culture medium represent the negative controls. After 24 hours of contact, the plates were examined under a phase contrast microscope, the medium was carefully removed from each well, the cells were then treated with MTT (1 mg/ml) and incubated for 3 hours under standard conditions. At the end of this period, the solution of MTT was eliminated and 100 µl of isopropanol were added to each well to dissolve the formazan crystals formed. The absorbance (optical density, OD) was determined by reading the spectrophotometer at a wavelength of 540 nm.
The inhibition of the cell vitality at each tested concentration was expressed as a percentage with respect to the negative control (non-treated cells) according to the following formula: Inhibition % = 100−[ODX /ODNC )×100] […]
The values thus calculated were charted against the same concentrations. […]

**Q.** For `CCCCCCCCCCCCOS(=O)(=O)[O-].[Na+]` [SDS, Sodium dodecyl sulfate], which inhibition at 50 µg/mL (Concentration 0.05 mg/ml, 24 hours, read-out: Cell vitality inhibition (%)) is on record?
**A.** 66.5%

**Q.** And the inhibition at 100 µg/mL (Concentration 0.1 mg/ml, 24 hours, read-out: Cell vitality inhibition (%))?
**A.** 97.2%

**Q.** And the inhibition at 200 µg/mL (Concentration 0.2 mg/ml, 24 hours, read-out: Cell vitality inhibition (%))?
**A.** 97.5%

**Q.** What about the inhibition at 400 µg/mL (Concentration 0.4 mg/ml, 24 hours, read-out: Cell vitality inhibition (%)) of the same compound?
**A.** 96.8%

**Q.** And the IC50 (concentration inhibiting cell vitality by 50%, extrapolated from concentration/response curve)?
**A.** 46 µg/mL
